# Reference: patent US20250059185A1 (Hoffmann-La Roche Inc., priority 2021, published 2025)
# Target: MAGL (Homo sapiens (Human), UniProt Q99685)
# Assay: 2-AG assay (MAGL inhibitory activity, hydrolysis of 2-arachidonoylglycerol followed by mass spectrometry)
# Format: biochemical
# Conditions: 50 pM MAGL protein, 15 min pre-incubation, 30 min incubation at RT
# Text: Compounds of formula (II) were profiled for MAGL inhibitory activity by determining the enzymatic activity by following the hydrolysis of the natural substrate 2-arachidonoylglycerol (2-AG) resulting in arachidonic acid, which can be followed by mass spectrometry. This assay is hereinafter abbreviated “2-AG assay”.
# Compounds of formula (II) were profiled for MAGL inhibitory activity by determining the enzymatic activity by following the hydrolysis of the natural substrate 2-arachidonoylglycerol (2-AG) resulting in arachidonic acid, which can be followed by mass spectrometry. This assay is hereinafter abbreviated “2-AG assay”. The 2-AG assay was carried out in 384 well polypropylene assay plates. Compound dilutions were made in 100% DMSO in a polypropylene plate in 3-fold dilution steps to give a final concentration range in the assay from 12.5 μM to 0.8 pM. Compound dilutions were added to MAGL protein in assay buffer (50 mM TRIS, 1 mM EDTA, 0.01% (v/v) Tween-20, 2.5% (v/v) DMSO). After shaking, the plate was incubated for 15 min at RT. To start the reaction, 2-arachidonoylglycerol in assay buffer was added. The final concentrations in the assay was 50 pM for MAGL protein and […] 2-arachidonoylglyerol. After shaking and 30 min incubation at RT, the reaction was quenched by the addition of two assay volumes of acetonitrile containing 4 μM of d8-arachidonic acid. The amount of arachidonic acid formed was traced by an online SPE system (Agilent Rapidfire) coupled to a triple quadrupole mass spectrometer. A C18 SPE cartridge (Agilent G9205A) was used in an acetonitrile/water liquid setup. The mass spectrometer was operated in negative electrospray mode following the mass transitions 303.1→259.1 for arachidonic acid and 311.1→267.0 for d8-arachidonic acid. The activity of the compounds was calculated based on the ratio of intensities [arachidonic acid/d8-arachidonic acid].
# Chain of MAGL (Q99685 whole entry, species assumed): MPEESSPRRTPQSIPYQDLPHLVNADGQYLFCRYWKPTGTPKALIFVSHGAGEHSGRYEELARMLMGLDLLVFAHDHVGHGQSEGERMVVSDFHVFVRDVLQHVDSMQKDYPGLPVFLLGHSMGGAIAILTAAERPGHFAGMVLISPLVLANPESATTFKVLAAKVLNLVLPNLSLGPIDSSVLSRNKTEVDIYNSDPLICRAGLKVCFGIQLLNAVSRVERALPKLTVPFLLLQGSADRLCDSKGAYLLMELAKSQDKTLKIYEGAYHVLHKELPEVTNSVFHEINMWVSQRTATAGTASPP
row,Structure (SMILES),IC50 [nM]
1,"C[C@H]1c2nn(C)c(-c3cc(F)cc(F)c3)c2CCN1C(=O)c1ccnc(OCC2CNC(=O)O2)c1Cl (stereo partly drawn) [Example 42, 5-[[3-Chloro-4-[(7S)-3-(3,5-difluorophenyl)-2,7-dimethyl-5,7-dihydro-4H-pyrazolo[3,4-c]pyridine-6-carbonyl]-2-pyridyl]oxymethyl]oxazolidin-2-one]",26
2,"C[C@H]1c2nn(C)c(-c3cc(F)cc(F)c3)c2CCN1C(=O)c1cc(F)cc(N2CC3(CCN3)C2)c1Cl [Example 111, [2-chloro-3-(1,6-diazaspiro[3.3]heptan-6-yl)-5-fluoro-phenyl]-[(7S)-3-(3,5-difluorophenyl)-2,7-dimethyl-5,7-dihydro-4H-pyrazolo[3,4-c]pyridin-6-yl]methanone;2,2,2-trifluoroacetic acid]",51.6
3,"CC1c2nn(C)c(-c3cc(F)cc(F)c3)c2CCN1C(=O)c1cc(F)cc(OCC2CNC(=O)C2)c1Cl (racemic) [Example 40, 4-[[2-Chloro-3-[3-(3,5-difluorophenyl)-2,7-dimethyl-5,7-dihydro-4H-pyrazolo[3,4-c]pyridine-6-carbonyl]-5-fluoro-phenoxy]methyl]pyrrolidin-2-one]",293
4,"COc1cccc(C(=O)N2CCc3c(nn(C)c3CNC3(C(F)(F)F)CC3)[C@@H]2C)c1Cl [Example 11, (2-Chloro-3-methoxy-phenyl)-[(7S)-2,7-dimethyl-3-[[[1-(trifluoromethyl)cyclopropyl]amino]methyl]-5,7-dihydro-4H-pyrazolo[3,4-c]pyridin-6-yl]methanone]",464
5,"CC1c2nn(C)c(-c3cc(Cl)cc(C4(NS(C)(=O)=O)CC4)c3)c2CCN1C(=O)c1cc(F)cc(-c2cc[nH]c(=O)c2)c1Cl (centres unmarked) [Example 57, N-[1-[3-Chloro-5-[6-[2-chloro-5-fluoro-3-(2-oxo-1H-pyridin-4-yl)benzoyl]-2,7-dimethyl-5,7-dihydro-4H-pyrazolo[3,4-c]pyridin-3-yl]phenyl]cyclopropyl]methanesulfonamide]",115
6,"CC1c2nn(C)c(-c3cc(Cl)cc(C4(NS(C)(=O)=O)CC4)c3)c2CCN1C(=O)c1cc(F)cc(-c2c[nH]c(C#N)c2)c1Cl (centres unmarked) [Example 84, N-[1-[3-chloro-5-[6-[2-chloro-3-(5-cyano-1H-pyrrol-3-yl)-5-fluoro-benzoyl]-2,7-dimethyl-5,7-dihydro-4H-pyrazolo[3,4-c]pyridin-3-yl]phenyl]cyclopropyl]methanesulfonamide]",6.18
7,"C[C@H]1c2nn(C)c(-c3cc(F)cc(F)c3)c2CCN1C(=O)c1cc(Cl)cc(OC[C@H]2CNC(=O)O2)c1Cl (single isomer, unassigned) [Example 109]",371
8,"C[C@H]1c2nn(C)c(-c3cc(F)cc(F)c3)c2CCN1C(=O)c1ncn(-c2ccc[nH]c2=O)c1Cl [Example 77, 3-[5-chloro-4-[(7S)-3-(3,5-difluorophenyl)-2,7-dimethyl-5,7-dihydro-4H-pyrazolo[3,4-c]pyridine-6-carbonyl]imidazol-1-yl]-1H-pyridin-2-one]",1460
9,"C[C@H]1c2nn(C)c(-c3cc(Cl)cc(C4(C(N)=O)CC4)c3)c2CCN1C(=O)c1cc(F)cc(-c2c[nH]c(C#N)c2)c1Cl [Example 71, 1-[3-chloro-5-[(7S)-6-[2-chloro-3-(5-cyano-1H-pyrrol-3-yl)-5-fluoro-benzoyl]-2,7-dimethyl-5,7-dihydro-4H-pyrazolo[3,4-c]pyridin-3-yl]phenyl]cyclopropanecarboxamide]",2160
10,"C[C@H]1c2nn(C)c(-c3cc(F)cc(F)c3)c2CCN1C(=O)c1ncn(-c2cccnc2O)n1 [Example 32, [(7S)-3-(3,5-Difluorophenyl)-2,7-dimethyl-5,7-dihydro-4H-pyrazolo[3,4-c]pyridin-6-yl]-[1-(2-hydroxy-3-pyridyl)-1,2,4-triazol-3-yl]methanone]",232
11,"CC1c2nn(C)c(-c3cc(Cl)cc(C4(C(N)=O)CC4)c3)c2CCN1C(=O)c1cc(F)cc(OCC2CNC(=O)C2)c1Cl (centres unmarked) [Example 70, 1-[3-chloro-5-[6-[2-chloro-5-fluoro-3-[(5-oxopyrrolidin-3-yl)methoxy]benzoyl]-2,7-dimethyl-5,7-dihydro-4H-pyrazolo[3,4-c]pyridin-3-yl]phenyl]cyclopropanecarboxamide]",42
12,"C[C@@H]1c2nn(C)c(-c3cc(Cl)cc(S(N)(=O)=O)c3)c2CCN1C(=O)c1ncn(-c2ccc[nH]c2=O)n1 [Example 63, 3-Chloro-5-[(7R)-2,7-dimethyl-6-[1-(2-oxo-1H-pyridin-3-yl)-1,2,4-triazole-3-carbonyl]-5,7-dihydro-4H-pyrazolo[3,4-c]pyridin-3-yl]benzenesulfonamide]",552
13,"C[C@H]1c2nn(C)c(-c3cc(F)cc(F)c3)c2CCN1C(=O)c1cc(Cl)cc(OCC2CNC(=O)O2)c1Cl (stereo partly drawn) [Example 107, 5-[[2,5-dichloro-3-[(7S)-3-(3,5-difluorophenyl)-2,7-dimethyl-5,7-dihydro-4H-pyrazolo[3,4-c]pyridine-6-carbonyl]phenoxy]methyl]oxazolidin-2-one]",0.61
14,"C[C@H]1c2nn(C)c(-c3cc(F)cc(F)c3)c2CCN1C(=O)c1cc(F)cc(OC[C@@H]2CNC(=O)N2)c1Cl (single isomer, unassigned) [Example 113]",2.48
15,"C[C@@H]1c2nn(C)c(-c3cc(F)cc(F)c3)c2CCN1C(=O)c1cc(F)cc(-c2ccc(=O)[nH]c2)c1Cl [Example 30, 5-[2-Chloro-3-[(7R)-3-(3,5-difluorophenyl)-2,7-dimethyl-5,7-dihydro-4H-pyrazolo[3,4-c]pyridine-6-carbonyl]-5-fluoro-phenyl]-1H-pyridin-2-one]",388
16,"COc1cccc(C(=O)N2CCc3c(nn(C)c3-c3cc(Cl)cc(C4(S(C)(=O)=O)CC4)c3)[C@@H]2C)c1Cl [Example 5, (2-Chloro-3-methoxy-phenyl)-[(7S)-3-[3-chloro-5-(1-methylsulfonylcyclopropyl)phenyl]-2,7-dimethyl-5,7-dihydro-4H-pyrazolo[3,4-c]pyridin-6-yl]methanone]",59
17,"COCCOc1cc(Cl)cc(-c2c3c(nn2C)[C@H](C)N(C(=O)c2cccc(OC)c2Cl)CC3)c1 [Example 69, [(7S)-3-[3-chloro-5-(2-methoxyethoxy)phenyl]-2,7-dimethyl-5,7-dihydro-4H-pyrazolo[3,4-c]pyridin-6-yl]-(2-chloro-3-methoxy-phenyl)methanone]",3
18,"CC1c2nn(C)c(-c3cc(F)cc(F)c3)c2CCN1C(=O)c1ccccc1Cn1ccnn1 (centres unmarked) [Example 24, [3-(3,5-Difluorophenyl)-2,7-dimethyl-5,7-dihydro-4H-pyrazolo[3,4-c]pyridin-6-yl]-[2-(triazol-1-ylmethyl)phenyl]methanone]",1230
19,"C[C@H]1c2nn(C)c(-c3cc(F)cc(F)c3)c2CCN1C(=O)c1ncn(-c2ccnc(O)c2)n1 [Example 112, [(7S)-3-(3,5-difluorophenyl)-2,7-dimethyl-5,7-dihydro-4H-pyrazolo[3,4-c]pyridin-6-yl]-[1-(2-hydroxy-4-pyridyl)-1,2,4-triazol-3-yl]methanone]",1660
20,"C[C@H]1c2nn(C)c(-c3cc(Cl)cc(C4(NS(C)(=O)=O)CC4)c3)c2CCN1C(=O)c1ncn(-c2cc(Cl)cnc2O)n1 [Example 91, N-[1-[3-chloro-5-[(7S)-6-[1-(5-chloro-2-hydroxy-3-pyridyl)-1,2,4-triazole-3-carbonyl]-2,7-dimethyl-5,7-dihydro-4H-pyrazolo[3,4-c]pyridin-3-yl]phenyl]cyclopropyl]methanesulfonamide]",1730
